From patent US20150126964A1, “DRUG DELIVERY ACROSS THE BLOOD-BRAIN BARRIER USING MAGNETICALLY HEATABLE ENTITIES” (CORPORATION DE L'ECOLE POLYTECHNIQUE DE MONTREAL, priority 2012, published 2015)
Several values for one entry are separate records, joined by “and”; a condition that tells them apart may be missing. Equal entries are not always repeated.

Test system: blood-brain barrier
Test: Histological examination of blood-brain barrier leakage of Evans blue dye after external heating
Format: in vivo, mice
Conditions: one line per animal
Excerpt: Staining of the blood-brain barrier is a traditional method for evaluating blood-brain barrier leakage. Evans Blue dye, an exogenous tracer, is used to assess the integrity of the blood-brain barrier following a hyperthermic disruption. The dye molecules are able to easily diffuse through the fenestrated endothelial cells of all capillaries except those of the brain due to a functional blood-brain barrier. However, once the blood-brain barrier is compromised, Evans blue enters the brain and it fluoresces with excitation peaks at 470 and 540 nm and an emission peak at 680 nm. Histological staining techniques can therefore reflect the extent of blood-brain barrier leakage by studying the intensity of Evans blue dye in the brain.
Phase ii. The purpose of this part of the experiment was to examine the feasibility of hyperthermic disruption of the blood-brain barrier as well as its recovery period from thermal damage using Evans blue staining technique. Here, nine mice, each 6-8 weeks of age, were randomly divided into three identical groups. In contrast to the previous part, no holes were drilled into the exposed surface of the skull of these animals. In order to correlate temperature patterns with stains left from the Evans blue dye, the heating parameters for all groups were kept the same as was described in the first part of this experiment. […]

Cc1cc(-c2ccc(/N=N/c3ccc4c(S(=O)(=O)O)cc(S(=O)(=O)O)c(N)c4c3O)c(C)c2)ccc1/N=N/c1ccc2c(S(=O)(=O)O)cc(S(=O)(=O)O)c(N)c2c1O [Evans blue]
Diameter of BBB leakage of Evans blue (mm) (Group I Hyperthermic Disruption, 30 min heating near Bregma, sacrificed one hour after dye): 0 mm and 4.22 mm and 2.46 mm | Diameter of BBB leakage of Evans blue (mm) (Group II Recovery from Hyperthermia, dye injected 2 hours after 30 min thermal treatment): 0 mm and 0.62 mm and 1.98 mm
